In patent US10053455B2, “Diazaspiroalkaneone-substituted oxazole derivatives as spleen tyrosine kinase inhibitors” (AB SCIENCE, priority 2014, dated 2018):
pIC50: −log10 of the molar value. Like-named read-outs stand apart in the source and are kept apart here.

Assays:
[1] = target: Flt3 (Homo sapiens (Human), UniProt P36888); assay: Cell-based proliferation assay on BaF3 model, Flt3
Protocol: (§1) Cell-based proliferation and viability assay CellTiter-Bleue cell-based survival/proliferation assay (Promega G8080) was performed on BaF3 models.
(§2) A total of 1.10^4 cells/well/50 μl were seeded in a 96-wells plate. Treatment was initiated by addition of a 2× drug solution of ½ serial dilutions ranging from 0 to 10 μM. Cells were grown for 48-72 h at 37° C. and then incubated with 10 μl/well of Promega CellTiter-Bleue reagent for 4 h at 37° C. The amount of formazan dye formed was quantified by its absorbance at 450 nm using a scanning multiwell spectrophotometer (POLARstar Omega, BMG labtech, France). A blank well without cells was used as a background control for the spectrophotometer and all assays were performed in duplicates and the experiments were repeated at least twice.

[2] = system: murine model of asthma; assay: Mouse model of asthma: eosinophils recruitment in bronchio-alveolar lavage; format: in vivo, Balb/c male mice
Protocol: Balb/c male mice, 8 weeks old, were purchased from Janvier (Le Genest-Saint-Isle; FRANCE) and bred in the animal facility for 4 weeks. Drugs were dissolved in drinking solvent (80% water; 10% Tween 80 and 10% isopropanediol). It was aliquoted and stored at −20° C. Each mouse received drugs twice a day. The weight of animals was calculated before and after treatment.
Mice, 9 weeks of age, were sensitized with 50 μg of ovalbumin (Sigma-Aldrich, Germany) adsorbed to 2 mg Al(OH)3 (Prolabo, France) and diluted in physiological saline (0.9% NaCl). Ovalbumin was injected intraperitoneally on days 1 and 7. Sensitization was followed by intranasal challenges with 10 μg of ovalbumin diluted in 0.9% NaCl, each day from day 18 to day 21. On days 17 to 21, animals treated with drugs received 100 μl of a solution at 15 mg/ml, at 7.5 mg/ml or at 3.75 mg/ml administered per os twice a day during 5 days. These treatments corresponded to concentration of 60 mg/mouse kg, 30 mg/mouse kg and 15 mg/mouse kg respectively.
Bronchio-alveolar lavage (BAL) was performed after the animals were disconnected from the FlexiVent®. The airways were lavaged with 5 ml (10 times 0.5 ml) ice cold 0.9% NaCl 2.6 mM EDTA. BAL samples were centrifuged at 1200 rpm for 5 minutes at 4° C. Pellet cells were collected and erythrocytes lysed by adding 1.5 ml deionized water for 30 seconds. After neutralization with 0.5 ml of 0.6M KCl, cells were centrifuged at 1200 rpm for 5 minutes at 4° C. BAL samples were used to count the total cell number and to perform cytospins (shandon, Pontoise). Cell types were identified by morphological criteria after Hemacolor (Merck) staining.
Mice were sensitized and challenged with ovalbumin as described in protocol assays above. The mice were distributed in groups of 5-6 animals that were treated twice daily with 7.5 to 60 mg/Kg of anti-SYK/KIT drugs (PO).

[3] = target: Btk (Homo sapiens (Human), UniProt Q06187); assay: HTRF kinase assay, Btk; format: biochemical; conditions: enzymatic determination
Btk, sequence (Q06187 whole entry, species assumed): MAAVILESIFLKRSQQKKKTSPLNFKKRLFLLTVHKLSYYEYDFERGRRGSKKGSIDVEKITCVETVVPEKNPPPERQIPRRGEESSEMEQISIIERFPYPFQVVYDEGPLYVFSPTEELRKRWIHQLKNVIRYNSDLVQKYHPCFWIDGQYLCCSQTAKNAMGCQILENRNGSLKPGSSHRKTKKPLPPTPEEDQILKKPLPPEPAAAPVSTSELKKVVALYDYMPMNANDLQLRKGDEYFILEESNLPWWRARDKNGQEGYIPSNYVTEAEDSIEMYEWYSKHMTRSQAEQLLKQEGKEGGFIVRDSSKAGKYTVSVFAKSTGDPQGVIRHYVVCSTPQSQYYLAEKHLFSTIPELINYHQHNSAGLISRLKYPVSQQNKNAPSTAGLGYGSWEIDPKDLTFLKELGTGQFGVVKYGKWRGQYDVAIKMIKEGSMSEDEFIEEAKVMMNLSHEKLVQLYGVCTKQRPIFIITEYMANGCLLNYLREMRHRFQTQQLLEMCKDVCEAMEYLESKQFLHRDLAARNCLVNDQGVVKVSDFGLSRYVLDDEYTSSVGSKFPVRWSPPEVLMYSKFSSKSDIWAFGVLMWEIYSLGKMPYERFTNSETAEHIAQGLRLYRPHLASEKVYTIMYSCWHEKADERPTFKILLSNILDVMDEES
Protocol: (§3) Most of the kinases tested in this study were cloned, expressed and purified in the facilities of the inventors. They were expressed either as N-terminus hexahistidine-, hexahistidine-asparagine- or GST-tagged enzymes in a baculovirus or in a Colibacille expression system. Remaining enzymes (JAKs) were purchased from Millipore or Proqinase. For each enzyme, steady state kinetic parameters were determined and validated with known inhibitors.
(§4) The analysis of the effect of compounds on kinase activity was assessed with the HTRF® KinEASE assay (Cisbio International), an immuno-assay based on the quantification of the level of phosphorylation of a biotinylated peptide substrate using anti-phospho-specific antibody labeled with Europium (Eu^3+) cryptate. This assay comprises two steps: —an enzymatic step, during which the peptide substrate, the kinase, ATP, Mg^2+ and/or Mn^2+ are incubated with varying concentration of drug (from 0 to 10 μM); —a detection step, at the end of the reaction (stopped by addition of EDTA which chelates Mg^2+), the antibody anti-phospho peptide-Eu^3+ (emission 620 nm) and streptavidin XL-665 (emission 665 nm) are added to the reaction mix. […] Results are expressed in delta fluorescence (DF) unit defined as follow DF %=[(ratio−ratio blank)/(ratio blank)]*100, where ratio=(665 nm/620 nm)*10^4. […]

[4] = target: SYK kinase (Homo sapiens (Human), UniProt P43405); assay: In vitro SYK inhibition assay (HTRF kinase assay); format: biochemical
Protocol: SYK kinase was purified as a full length protein in a baculovirus system near homogeneity. All kinase assays were performed with the Kinase TK (tyrosine kinase) HTRF (Homogeneous Time Resolved Fluorescence) assay developed by Cisbio international. […] Reactions were initiated upon introduction of the enzyme and terminated with the addition of one reaction volume (25 μl) of HTRF detection buffer. Plates were incubated for one hour at room temperature and the time resolved Fluorescence resonance energy transfer signal was measured in a Pherastar FS microplate reader (BMG Labtech).
as §3
The analysis of the effect of compounds on kinase activity was assessed with the HTRF® KinEASE assay (Cisbio International), an immuno-assay based on the quantification of the level of phosphorylation of a biotinylated peptide substrate using anti-phospho-specific antibody labeled with Europium (Eu^3+) cryptate. This assay comprises two steps: —an enzymatic step, during which the peptide substrate, the kinase, ATP, Mg^2+ and/or Mn^2+ are incubated with varying concentration of drug (from 0 to 10 μM); —a detection step, at the end of the reaction (stopped by addition of EDTA which chelates Mg^2+), the antibody anti-phospho peptide-Eu^3+ (emission 620 nm) and streptavidin XL-665 (emission 665 nm) are added to the reaction mix. After incubation, the obtained signal is proportional to the concentration of phosphorylated peptide in the sample. All measurements were performed on a BMG Labtech Pherastar FS apparatus. Results are expressed in delta fluorescence (DF) unit defined as follow DF %=[(ratio−ratio blank)/(ratio blank)]*100, where ratio=(665 nm/620 nm)*10^4. Each experiment was performed in duplicate and repeated two or three times.

[5] = target: KIT wild-type (Homo sapiens (Human), UniProt P10721); assay: Cell-based proliferation assay on BaF3 model, KIT wild-type
KIT wild-type, sequence (P10721 26-976, species assumed): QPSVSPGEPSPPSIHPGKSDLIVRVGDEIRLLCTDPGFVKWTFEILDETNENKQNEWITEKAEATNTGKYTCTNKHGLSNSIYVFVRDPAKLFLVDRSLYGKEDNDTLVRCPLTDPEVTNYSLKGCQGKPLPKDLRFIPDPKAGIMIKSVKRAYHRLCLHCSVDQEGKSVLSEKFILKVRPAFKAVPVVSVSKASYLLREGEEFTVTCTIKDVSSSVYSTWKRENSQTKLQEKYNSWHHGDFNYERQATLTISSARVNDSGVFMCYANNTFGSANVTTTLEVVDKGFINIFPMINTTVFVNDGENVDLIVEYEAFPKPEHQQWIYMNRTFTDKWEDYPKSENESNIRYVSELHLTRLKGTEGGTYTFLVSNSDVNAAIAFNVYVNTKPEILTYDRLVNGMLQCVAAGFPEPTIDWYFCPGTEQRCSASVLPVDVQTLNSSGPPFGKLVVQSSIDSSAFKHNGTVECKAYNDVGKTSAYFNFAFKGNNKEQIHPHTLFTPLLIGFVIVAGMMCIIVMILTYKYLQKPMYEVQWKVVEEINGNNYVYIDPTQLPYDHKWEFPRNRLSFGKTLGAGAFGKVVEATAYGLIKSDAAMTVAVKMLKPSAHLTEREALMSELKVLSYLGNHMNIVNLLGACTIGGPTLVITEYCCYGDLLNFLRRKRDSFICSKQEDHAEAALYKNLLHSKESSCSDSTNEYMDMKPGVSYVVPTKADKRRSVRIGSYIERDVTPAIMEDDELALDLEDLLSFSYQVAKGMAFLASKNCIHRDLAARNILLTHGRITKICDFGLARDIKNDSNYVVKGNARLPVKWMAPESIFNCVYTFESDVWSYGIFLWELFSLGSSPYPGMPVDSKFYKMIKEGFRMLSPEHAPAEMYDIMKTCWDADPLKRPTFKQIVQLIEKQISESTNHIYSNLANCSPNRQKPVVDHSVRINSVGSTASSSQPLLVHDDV
Protocol: as §1, §2

[6] = target: Src (Homo sapiens (Human), UniProt P12931); assay: HTRF kinase assay, Src; format: biochemical; conditions: enzymatic determination
Src, sequence (P12931 whole entry, looked up, species assumed): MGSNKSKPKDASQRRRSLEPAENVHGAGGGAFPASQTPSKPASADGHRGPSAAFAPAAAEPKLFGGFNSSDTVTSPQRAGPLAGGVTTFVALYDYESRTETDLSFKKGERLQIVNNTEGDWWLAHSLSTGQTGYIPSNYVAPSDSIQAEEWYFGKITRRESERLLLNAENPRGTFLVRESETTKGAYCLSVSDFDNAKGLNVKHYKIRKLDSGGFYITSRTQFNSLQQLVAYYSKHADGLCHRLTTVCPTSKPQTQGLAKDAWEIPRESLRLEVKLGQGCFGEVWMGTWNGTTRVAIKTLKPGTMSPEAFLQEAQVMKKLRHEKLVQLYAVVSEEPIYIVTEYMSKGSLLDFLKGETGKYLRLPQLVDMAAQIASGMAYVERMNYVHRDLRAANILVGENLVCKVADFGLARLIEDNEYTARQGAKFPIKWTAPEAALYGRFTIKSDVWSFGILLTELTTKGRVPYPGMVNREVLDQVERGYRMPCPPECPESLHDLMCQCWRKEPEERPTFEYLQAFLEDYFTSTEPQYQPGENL
Protocol: as §3, §4

[7] = system: human cardiomyocytes; assay: Intracellular ROS in human cardiomyocytes (CM-H2DCFDA); format: cell-based; conditions: 10 μM, 8 hours
Protocol: 2×10^3 human cardiomyocytes (Promocell C-12810) or 4×10^4 rat neonatal cardiac myocytes (R-CM-561 Lonza) were seeded per well of a 96-well plate (black wall for fluorimetry usage (655090 Greiner Bio one)) 24 hours before drug treatment. Treatment was initiated by addition of a drug solution for a 10 μM final concentration. Doxorubicin was used at 5 μM as positive control for the induction of ROS. After 8 hours treatment with drugs, cells were loaded with 10 μM of CM-H2DCFDA (C6827 Invitrogen) for 1 hour, followed by 2 washes in PBS. CM-H2DCFDA is a membrane permeable reagent that can be enzymatically converted to dichlorodihydrofluorescein (DCF) in the presence of ROS. Fluorescent DCF was detected using a fluorescence spectrophotometer (BMG Labtech) with excitation of 485 nm and emission of 560 nm. The results were expressed as a relative percent of DCF-fluorescence in control cells.
Monitoring drug-induced increase in the production of reactive oxygen species (ROS) in cardiomyocyte may be important to predict the cardiotoxic side effects of a drug (Table 11). The production of ROS in human and rat cardiomyocytes was studied following 8 hours drug treatment at concentration of 10 μM. The results were expressed as a percent relative to the production of ROS induced by the cardiotoxic chemotherapeutic agent doxorubicin (100%).

[8] = target: Jak2 (Homo sapiens (Human), UniProt O60674); assay: HTRF kinase assay, Jak2; format: biochemical; conditions: enzymatic determination
Jak2, sequence (O60674 whole entry): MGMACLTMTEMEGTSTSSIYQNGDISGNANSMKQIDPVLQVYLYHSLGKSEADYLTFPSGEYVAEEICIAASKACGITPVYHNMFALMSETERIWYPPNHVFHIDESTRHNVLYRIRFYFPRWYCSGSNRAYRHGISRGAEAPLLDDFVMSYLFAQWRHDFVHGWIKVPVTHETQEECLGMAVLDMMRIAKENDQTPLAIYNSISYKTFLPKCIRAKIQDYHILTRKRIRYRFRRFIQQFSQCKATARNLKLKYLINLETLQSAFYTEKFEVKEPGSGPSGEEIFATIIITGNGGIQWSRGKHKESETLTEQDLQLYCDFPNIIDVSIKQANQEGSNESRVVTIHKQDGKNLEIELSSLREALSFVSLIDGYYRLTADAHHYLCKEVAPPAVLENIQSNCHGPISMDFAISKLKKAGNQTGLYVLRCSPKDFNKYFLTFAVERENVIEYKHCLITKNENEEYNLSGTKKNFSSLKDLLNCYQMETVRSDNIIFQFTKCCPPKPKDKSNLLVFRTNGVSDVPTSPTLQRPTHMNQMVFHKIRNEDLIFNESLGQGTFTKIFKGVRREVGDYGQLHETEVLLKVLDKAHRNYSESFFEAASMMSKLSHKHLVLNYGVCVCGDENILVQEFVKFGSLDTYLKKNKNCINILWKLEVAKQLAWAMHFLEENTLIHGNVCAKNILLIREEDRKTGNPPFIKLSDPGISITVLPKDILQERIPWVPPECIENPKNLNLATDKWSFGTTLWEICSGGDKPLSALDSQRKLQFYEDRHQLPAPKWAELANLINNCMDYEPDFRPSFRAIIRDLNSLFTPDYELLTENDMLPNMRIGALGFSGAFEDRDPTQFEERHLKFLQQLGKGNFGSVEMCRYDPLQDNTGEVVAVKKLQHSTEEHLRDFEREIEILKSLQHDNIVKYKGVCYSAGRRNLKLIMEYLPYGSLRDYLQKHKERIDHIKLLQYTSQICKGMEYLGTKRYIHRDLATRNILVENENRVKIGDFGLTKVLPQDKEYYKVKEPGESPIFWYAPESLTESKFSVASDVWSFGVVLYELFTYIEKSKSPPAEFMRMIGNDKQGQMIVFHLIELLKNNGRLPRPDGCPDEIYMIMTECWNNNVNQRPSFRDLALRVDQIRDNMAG
Protocol: as §3, §4

Flt3, sequence (P36888 27-993, species assumed): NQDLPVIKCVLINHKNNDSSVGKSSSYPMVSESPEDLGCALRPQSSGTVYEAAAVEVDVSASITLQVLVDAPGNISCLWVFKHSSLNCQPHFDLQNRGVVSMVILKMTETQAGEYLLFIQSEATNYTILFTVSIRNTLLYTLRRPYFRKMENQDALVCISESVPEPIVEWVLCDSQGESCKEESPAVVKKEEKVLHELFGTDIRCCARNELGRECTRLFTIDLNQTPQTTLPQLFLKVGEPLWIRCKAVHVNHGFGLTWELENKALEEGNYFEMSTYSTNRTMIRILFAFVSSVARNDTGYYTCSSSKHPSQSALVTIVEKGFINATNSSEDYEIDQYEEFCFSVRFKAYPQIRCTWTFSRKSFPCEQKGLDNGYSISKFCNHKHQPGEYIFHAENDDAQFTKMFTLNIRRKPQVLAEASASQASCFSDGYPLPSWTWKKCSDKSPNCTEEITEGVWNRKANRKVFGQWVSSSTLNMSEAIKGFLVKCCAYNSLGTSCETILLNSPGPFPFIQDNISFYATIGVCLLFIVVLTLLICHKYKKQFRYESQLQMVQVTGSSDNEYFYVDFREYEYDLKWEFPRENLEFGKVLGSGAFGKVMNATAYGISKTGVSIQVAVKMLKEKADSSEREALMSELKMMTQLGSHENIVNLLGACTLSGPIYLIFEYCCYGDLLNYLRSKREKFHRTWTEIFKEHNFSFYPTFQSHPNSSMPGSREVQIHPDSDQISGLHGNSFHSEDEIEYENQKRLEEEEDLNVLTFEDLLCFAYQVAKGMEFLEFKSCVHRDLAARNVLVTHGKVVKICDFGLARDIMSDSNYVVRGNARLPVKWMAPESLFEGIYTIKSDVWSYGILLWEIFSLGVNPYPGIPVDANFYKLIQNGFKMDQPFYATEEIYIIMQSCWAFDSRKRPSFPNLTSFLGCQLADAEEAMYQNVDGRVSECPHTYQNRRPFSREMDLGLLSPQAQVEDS

With Cc1ccnc(Nc2cccc(-c3cnc(N4CCNC(=O)C45CC5)o3)c2)n1 [Compound 001, 4-{5-[3-(4-Methyl-pyrimidin-2-ylamino)-phenyl]-oxazol-2-yl}-4,7-diaza-spiro[2.5]octan-8-one] the pIC50 [1] was 5.22, the “Percentage of Eosinophils recruitment in Bronchio-alveolar lavage (BAL)” value ([2]; Experiment #2, 2 × 15 mg/kg/day PO) was −14% and the “Percentage of Eosinophils recruitment in Bronchio-alveolar lavage (BAL)” value ([2]; Experiment #2, 2 × 30 mg/kg/day PO) was −47%. The pIC50 [3] was 4.70, the pIC50 ([4]; enzymatic determination, read-out: Kinase activity profile IC50 Syk) was 7.39 and the pIC50 ([4]; read-out: Syk (IC50)) was > 6.30. The pIC50 [5] was 5.00, the pIC50 [6] was 5.59 and the “ROS production, activity relative to doxorubicine (100%), Hu-CM” value [7] was 0%. It also gave a pIC50 ([8]; read-out: Jak2 IC50) of 6.05 and a pIC50 ([8]; read-out: Kinase activity profile IC50 JAK 2) of 6.04.
